According to ChEMBL document CHEMBL1142535, “Rational design and synthesis of 4-((1R,2R)-2-hydroxycyclohexyl)-2(trifluoromethyl)benzonitrile (PF-998425), a novel, nonsteroidal androgen receptor antagonist devoid of phototoxicity for dermatological indications” (J Med Chem, 2008):
The source made the active and inactive calls. The rule behind the calls is not given here.

Legend:
Progesterone receptor = target: T1, Progesterone receptor (Homo sapiens, UniProt P06401); assay: Inhibition of progesterone receptor
T1 sequence (P06401 whole entry): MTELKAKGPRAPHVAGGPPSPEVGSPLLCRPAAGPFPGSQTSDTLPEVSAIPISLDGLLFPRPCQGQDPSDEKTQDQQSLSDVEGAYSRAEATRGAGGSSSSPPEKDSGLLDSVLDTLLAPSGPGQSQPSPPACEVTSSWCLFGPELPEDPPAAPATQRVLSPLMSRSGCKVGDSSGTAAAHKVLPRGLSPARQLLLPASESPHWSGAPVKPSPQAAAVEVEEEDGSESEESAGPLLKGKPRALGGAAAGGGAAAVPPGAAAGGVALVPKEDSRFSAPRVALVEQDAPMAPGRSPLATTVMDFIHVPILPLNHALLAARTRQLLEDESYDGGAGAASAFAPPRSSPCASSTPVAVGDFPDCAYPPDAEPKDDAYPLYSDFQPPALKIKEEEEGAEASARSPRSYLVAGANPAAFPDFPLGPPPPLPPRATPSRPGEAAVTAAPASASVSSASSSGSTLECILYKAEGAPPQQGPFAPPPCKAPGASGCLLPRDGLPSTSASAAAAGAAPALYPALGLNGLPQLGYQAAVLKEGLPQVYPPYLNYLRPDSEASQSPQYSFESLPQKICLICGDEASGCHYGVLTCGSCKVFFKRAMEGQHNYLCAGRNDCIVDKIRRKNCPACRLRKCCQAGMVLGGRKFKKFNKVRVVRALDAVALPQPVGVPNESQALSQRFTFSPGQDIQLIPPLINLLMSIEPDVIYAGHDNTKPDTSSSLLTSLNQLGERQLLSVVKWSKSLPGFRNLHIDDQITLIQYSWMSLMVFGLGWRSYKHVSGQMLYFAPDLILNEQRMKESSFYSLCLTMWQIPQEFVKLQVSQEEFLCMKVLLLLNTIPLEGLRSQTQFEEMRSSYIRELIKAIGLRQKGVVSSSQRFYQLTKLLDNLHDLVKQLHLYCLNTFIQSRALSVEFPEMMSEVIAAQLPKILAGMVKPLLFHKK

Syrian golden hamster [1] = assay: Reduction of sebum ester production in golden syrian hamster ear topically dosed at 3% twice daily 5 days per week for two weeks; assay type: functional, Mesocricetus auratus; parameters: scale not given: the % may be the effect or the level left
Androgen receptor [2] = target: T2, Androgen receptor (Homo sapiens, UniProt P10275)
T2 sequence (P10275 whole entry): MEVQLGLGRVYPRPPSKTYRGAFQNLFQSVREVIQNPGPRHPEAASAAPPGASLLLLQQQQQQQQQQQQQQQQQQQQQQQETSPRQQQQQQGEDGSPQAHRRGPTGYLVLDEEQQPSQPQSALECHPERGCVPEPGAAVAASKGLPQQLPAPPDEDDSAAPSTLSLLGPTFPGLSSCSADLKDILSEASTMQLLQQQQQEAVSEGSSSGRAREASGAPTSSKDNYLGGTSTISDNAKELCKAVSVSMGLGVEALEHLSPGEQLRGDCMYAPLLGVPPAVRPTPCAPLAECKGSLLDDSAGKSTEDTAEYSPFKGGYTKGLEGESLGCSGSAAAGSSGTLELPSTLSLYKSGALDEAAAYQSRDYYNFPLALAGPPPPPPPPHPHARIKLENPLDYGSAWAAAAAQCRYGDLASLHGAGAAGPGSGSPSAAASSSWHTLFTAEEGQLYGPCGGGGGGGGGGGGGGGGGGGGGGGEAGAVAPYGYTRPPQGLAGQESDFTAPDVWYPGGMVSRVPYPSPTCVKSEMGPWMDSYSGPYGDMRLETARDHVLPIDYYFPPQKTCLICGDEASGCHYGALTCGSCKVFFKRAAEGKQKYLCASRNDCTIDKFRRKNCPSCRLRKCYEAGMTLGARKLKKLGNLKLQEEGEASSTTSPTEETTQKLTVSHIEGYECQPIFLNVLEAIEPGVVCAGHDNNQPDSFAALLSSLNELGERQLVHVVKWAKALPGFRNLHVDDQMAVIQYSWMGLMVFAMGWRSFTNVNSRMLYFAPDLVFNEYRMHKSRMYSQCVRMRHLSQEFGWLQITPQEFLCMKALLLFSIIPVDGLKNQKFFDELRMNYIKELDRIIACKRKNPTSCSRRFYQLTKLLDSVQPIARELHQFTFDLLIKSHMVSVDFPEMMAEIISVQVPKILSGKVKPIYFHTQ
Description: Antagonist activity against human androgen receptor expressed in human MDA-MB-453 cells assessed as inhibition of dihydrotestosterone-induced effect by luciferase receptor gene assay

Androgen receptor [3] = target: T2, Androgen receptor; assay: biochemical
Description: Displacement of [3H]dihydrotestosterone from human androgen receptor expressed in Sf9 cells

[4] = Metabolic stability assessed as half life in rat liver microsomes at 5 uM; assay type: ADME, Microsome
[5] = Metabolic stability assessed as intrinsic clearance per mg of protein in rat liver microsomes at 5 uM; assay type: ADME, Microsome
[6] = Plasma clearance in Beagle dog at 0.8 mg/kg, iv after 24 hrs; assay type: ADME, organism-based, Canis lupus familiaris; parameters: dose 0.8 mg/kg, route intravenous
[7] = Apparent volume of distribution in Beagle dog at 0.8 mg/kg, iv after 24 hrs; assay type: ADME, organism-based, Canis lupus familiaris; parameters: dose 0.8 mg/kg, route intravenous; conditions: in vivo, read-out: Vdss
[8] = Mean terminal half life in Beagle dog at 0.8 mg/kg, iv after 24 hrs; assay type: ADME, organism-based, Canis lupus familiaris; parameters: dose 0.8 mg/kg, route intravenous; conditions: in vivo, read-out: beta t1/2 (converted)
Mus musculus = assay: Activation of hair growth in C3H/HeN mouse hair growth model topically dosed twice daily 5 days per week for 4 weeks; assay type: functional, organism-based
Syrian golden hamster [9] = assay: Reduction of sebum ester production in golden syrian hamster ear topically dosed twice daily 5 days per week for two weeks; assay type: functional, Mesocricetus auratus
NIH3T3 = assay: Phototoxicity in mouse 3T3 cells by neutral red uptake phototoxicity; assay type: cell-based

SMILES | IC50 (Progesterone receptor) [nM] | Activity (Syrian golden hamster [1]) [%] | IC50 (Androgen receptor [2]) [nM] | IC50 (Androgen receptor [3]) [nM] | also measured
CC1(C)C(=O)N(c2ccc(C#N)c(C(F)(F)F)c2)C(=O)N1CCCCO [RU-58841] | 1000 | 92 | – | – | –
C[C@H](c1ccccc1)N(C)c1cc(C(F)(F)F)c(C#N)cn1 | 1660 | – | – | – | –
COc1cc(-c2ccccc2O)ccc1C#N | 3250 | 87 | 20.1 | 37 | –
N#Cc1ccc(C2CCCCC2O)cc1C(F)(F)F (racemic) | > 10000 | – | 90 | 26 | –
N#Cc1ccc(-c2ccccc2O)cc1C(F)(F)F | – | 86 | – | – | –
N#Cc1ccc([C@H]2CCCC[C@@H]2O)cc1C(F)(F)F | – | – | – | > 3000 | –
N#Cc1ccc([C@H]2CCCC[C@H]2O)cc1C(F)(F)F | > 10000 | 85 | 43 | 37 | half-life at 5 µM [4]: 4 min; microsomal CLint at 5 µM [5]: 350 µL/min/mg; clearance [6]: 40 mL/min/kg; Vd [7]: 6.5 L/kg; half-life [8]: 2.6 h; Activity (Mus musculus): Active; ED50 (Syrian golden hamster [9]): 0.4%; Activity (NIH3T3): Non-toxic
N#Cc1ccc([C@@H]2CCCC[C@@H]2O)cc1C(F)(F)F | – | – | – | 1600 | –
N#Cc1ccc(O[C@@H]2CCCC[C@H]2C#N)cc1C(F)(F)F | > 10000 | – | – | – | –
